According to patent US20100196430A1, “Controlled-released agricultural chemical formulation” (priority 2004, published 2010):
Read-outs that look alike come from different tables or passages of the source.

Assays:
Format in all cases: in vivo
[1] = system: yellow striped flea beetles; assay: Test of use as a seed treatment agent by combining with synthetic pyrethroids (rapeseed); conditions: Inoculation 18 days after seeding; for No. of plant damage scars/3 plants, Average / No. of plant damage scars/3 plants, Repeat A / No. of plant damage scars/3 plants, Repeat B: 3 days in cage, 500 g of each active per 100 kg of rapeseed seeds; for Control rate: relative to untreated group
Description: Wettable powder 2 obtained in Example 20 was dispersed in 2.8 ml of a solution (sticker solution), in which 5% by weight of polyvinyl alcohol (Gohsenol GL05S, Nippon Synthetic Chemical) and 1% by weight of a surfactant in the form of sodium lignin sulfonate ([…] RX-B, Takemoto Oil & Fat) were dissolved in 94% by weight of water, so as to contain […] of acetamiprid, 0.35 ml of this dispersion were placed in a vinyl bag provided with a zipper containing 8 g of rapeseed seeds, immediately after which the zipper was closed followed by mixing by shaking vigorously for 30 seconds to adhere the chemical to the rapeseed seeds. The seeds were then spread out in a thin layer in a vat and air-dried overnight at room temperature to obtain rapeseed seeds adhered with 500 g of acetamiprid per 100 kg of seeds.
1 g of cypermethrin wettable powder (active ingredient: […]) was dispersed in 1.3 ml of distilled water, and 0.65 ml of this dispersion (20 mg as cypermethrin) were placed in a vinyl bag provided with a zipper containing 8 g of rapeseed seeds adhered with 500 g of acetamiprid per 100 kg of seeds, immediately after which the zipper was closed followed by mixing by shaking vigorously for 30 seconds to adhere the chemical to the rapeseed seeds. The seeds were then spread out in a thin layer in a vat and air-dried for 1 to 2 hours at room temperature followed by again placing in a vinyl bag provided with a zipper, adding 0.65 ml of the aforementioned dispersion and repeating the same procedure. These seeds were then spread out in a thin layer in a vat followed by allowing to air dry overnight at room temperature to obtain rapeseed seeds adhered with 500 g of cypermethrin and 500 g of acetamiprid per 100 kg of seeds.
In addition, wettable powder 2 obtained in Example 20 was dispersed in 1.1 g of bifenthrin SC (active ingredient: 7.2% by weight) so as to contain 80 mg of acetamiprid, and 0.55 ml of this dispersion (40 mg as bifenthrin and 40 mg of acetamiprid) were placed in a vinyl bag provided with a zipper containing 8 g of rapeseed seeds, followed immediately by mixing by shaking vigorously for 30 seconds to adhere the chemical to the seeds. The seeds were then spread out in a thin layer in a vat and air-dried overnight at room temperature to obtain rapeseed seeds adhered with 500 g of bifenthrin and 500 g of acetamiprid per 100 kg of seeds.
The resulting seeds were planted in a No. 2 flower pot containing alluvial soil and cultivated in a greenhouse. Eighteen days after seeding, rapeseed seedlings were transferred to a cage in which 100 adult yellow striped flea beetles had been released, and after allowing to stand for 3 days, the number of plant damage scars caused by the adult yellow striped flea beetles was counted for three plants in each test group. For the control, similar tests were carried out in the case of treating with 500 g of wettable powder 2, cypermethrin or bifenthrin alone per 100 kg of seeds, and in the case of non-treatment. Control rate (%)=((no. of scars of untreated group−no. of scars of treated group)/(no. of scars of untreated group))×100.

[2] = system: yellow striped flea beetles; assay: Test of use as a cell tray drench treatment agent (Chinese cabbage); conditions: for No. of plant damage scars/4 plants: counted 6 days after release
Description: 3.57 g of wettable powder 2 obtained in Example 20 were dispersed in 1 liter of water to prepare a chemical liquid. 0.5 ml of chemical liquid per plant were dropped onto Chinese cabbage seedlings at the 4 to 4.5 leaf stage cultured in cell trays from above using a pipette. On the day following chemical treatment, the treated seedlings were planted in No. 6 flower pots containing Kuroboku soil and cultivated in a greenhouse. Each pot was covered with a cylindrical cage at 2, 14 and 28 days after planting, 10 adult yellow striped flea beetles were released inside the cages, and the numbers of plant damage scars caused by the adult yellow striped flea beetles were counted for four pots in each test group 6 days after releasing the insect pests. For the control, similar tests were carried out in the case of treating with commercially available bifenthrin SC and in the case of non-treatment.

Nephotettix cincticeps = assay: Test of use as a paddy treatment agent by seedling box drench treatment; conditions: for mortality at 0.03 ppm / mortality at 0.08 ppm / mortality at 0.12 ppm: Nephotettix cincticeps, soil, read-out: Insect mortality rate
Description: Wettable powder 4 obtained in Example 22 was diluted with water to a predetermined concentration to prepare a chemical liquid. 10 ml per tray of the chemical liquid was dropped onto the surface of soil containing seedlings having a height of about 10 cm cultivated in small plastic trays filled with granular planting soil using a pipette. Following chemical treatment, the trays were covered with a cylindrical cage and 6 two-instar Nephotettix cincticeps were released inside followed by counting the number of […] at 3 and 7 days after releasing the insect pests. For the control, similar tests were carried out for the case of treating with imidacloprid, and in the case of non-treatment. The control imidacloprid was sprayed onto the plants after adjusting to 5% by weight in dimethylformamide containing 1.5% by weight of Tween 20 and diluting with water.
Corrected insecticidal rate (%)=((survival rate in untreated group−survival rate in treated group)/survival rate in untreated group)×100

For `Cc1c(COC(=O)[C@@H]2[C@H](/C=C(\Cl)C(F)(F)F)C2(C)C)cccc1-c1ccccc1` (racemic) [Bifenthrin, bifenthrin], the “No. of plant damage scars/3 plants, Average” value [1] was 270, the “No. of plant damage scars/3 plants, Repeat A” value [1] was 306 and the “No. of plant damage scars/3 plants, Repeat B” value [1] was 234. It also gave a Control rate [1] of 3.2%, a Control rate ([2]; After 2 days) of 87.1% and a Control rate ([2]; After 14 days) of 70.6%. For the same compound, the Control rate ([2]; After 28 days) was 40.7%, the “No. of plant damage scars/4 plants” value ([2]; beetles released After 2 days from planting, 0.5 ml of chemical liquid per plant) was 4 and the “No. of plant damage scars/4 plants” value ([2]; beetles released After 14 days from planting) was 103. For the same compound, the “No. of plant damage scars/4 plants” value ([2]; beetles released After 28 days from planting) was 934.

In the case of `CC1(C)C(C=C(Cl)Cl)C1C(=O)OC(C#N)c1cccc(Oc2ccccc2)c1` (centres unmarked) [Cypermethrin, cypermethrin], the “No. of plant damage scars/3 plants, Average” value [1] is reported as 269, the “No. of plant damage scars/3 plants, Repeat A” value [1] is reported as 296 and the “No. of plant damage scars/3 plants, Repeat B” value [1] is reported as 241. The Control rate [1] was 3.6%.

For `O=[N+]([O-])NC1=NCCN1Cc1ccc(Cl)nc1` [Imidacloprid, imidacloprid], the Corrected insecticidal rate (Nephotettix cincticeps; Concentration 0.03 ppm, After 3 days) was 83%, the Corrected insecticidal rate (Nephotettix cincticeps; Concentration 0.03 ppm, After 7 days) was 100% and the Corrected insecticidal rate (Nephotettix cincticeps; Concentration 0.08 ppm, After 3 days) was 63%. For the same compound, the Corrected insecticidal rate (Nephotettix cincticeps; Concentration 0.08 ppm, After 7 days) was 83%, the Corrected insecticidal rate (Nephotettix cincticeps; Concentration 0.12 ppm, After 3 days) was 100% and the Corrected insecticidal rate (Nephotettix cincticeps; Concentration 0.12 ppm, After 7 days) was 100%. The mortality at 0.03 ppm (Nephotettix cincticeps; 72 h, Concentration 0.03 ppm, After 3 days) was 83%, the mortality at 0.08 ppm (Nephotettix cincticeps; 72 h, Concentration 0.08 ppm, After 3 days) was 63% and the mortality at 0.12 ppm (Nephotettix cincticeps; 72 h, Concentration 0.12 ppm, After 3 days) was 100%. For the same compound, the mortality at 0.03 ppm (Nephotettix cincticeps; 168 h, Concentration 0.03 ppm, After 7 days) was 100%, the mortality at 0.08 ppm (Nephotettix cincticeps; 168 h, Concentration 0.08 ppm, After 7 days) was 83% and the mortality at 0.12 ppm (Nephotettix cincticeps; 168 h, Concentration 0.12 ppm, After 7 days) was 100%.
